Data on two compounds can be found in patent US9073916B2, “Prodrug forms of kinase inhibitors and their use in therapy” (AUCKLAND UNISERVICES LIMITED, priority 2009, dated 2015).

By IC50 is commonly meant the concentration at which inhibition is half-maximal. In general, half-life refers to the time in which the quantity being followed falls by half. High values mean slow decline, low ones rapid decline. Broadly, the AUC is concentration integrated over time. A high value points to more exposure. Usually AUC(0-t) stands for exposure summed from dosing to a finite time, without extrapolation to infinity.

Several values for one entry are separate records, joined by “and”; a condition that tells them apart may be missing. Identical values can stand only once. Like-named read-outs stand apart in the source and are kept apart here.

The test system of one series is Erk1/2. The settings on record: EGF-stimulated A431 cells.
Another series relates to SKBR3 cells. Nature of the series: Cellular growth inhibition (sulforhodamine B). Type of series: cell-based, Human. The settings on record: Table 3; for IC50: Homo sapiens, SK-BR-3.
In another series the test system is SKOV3 xenografts. Nature of the series: In vivo efficacy in SKOV3 xenografts. On the set-up: species or system mice. As for the experimental part: (§1) Specific pathogen-free homozygous female NIH-III nude mice (Charles River Laboratories, Wilmington, Mass.) were inoculated subcutaneously with a single cell suspension of SKOV3 cells (1×10^7 cells/100 μL; right flank). When SKOV3 tumour xenografts were established (typically 50-65 days) mice were randomized to treatment groups. All compounds were prepared in lactate buffer (pH4). Mice were dosed by intraperitoneal injection (0.01-0.03 ml/g) using the stated schedules and dose levels. Tumour size and body weights were measured at regular intervals. Tumour volume was calculated as π (length×width^2)/6. […] Differences in RTV^4 were tested for statistical difference by Mann Whitney U test using SigmaStat v3.5.
as §1, with “Compounds 42 and 161” for “All compounds”

Series [1] can be described thus: Plasma and A431 tumour pharmacokinetics of compounds 11 and 20. The conditions noted are these: NIHIII, mouse, 75 umol/kg.
A further series deals with erbB4 (Homo sapiens, UniProt Q15303). Nature of the series: Isolated enzyme inhibition (Invitrogen Z′-LYTE kinase assay). The conditions noted are these: 10 μM ATP, duplicate. The class given is biochemical. How it is done: (§2) The compounds of Table 1 were tested for their ability to inhibit erbB1, erbB1^T790M, erbB2 and erbB4 in an isolated enzyme assay. This assay utilises synthetic FRET-capable peptide substrates. Phosphorylation of these substrates protects them from cleavage by a development reagent, leaving their FRET-capabilities intact. […] As a further consideration, for compounds capable of irreversible inhibition of an enzyme, the IC50 reflects both reversible and irreversible binding to the enzyme.

Series [2] has as its target T1, erbB2 (Homo sapiens, UniProt P04626). The description is as above. The settings on record: 10 μM ATP, duplicate. Type of series: biochemical. As for the experimental part: as §2
A further series deals with A431 xenografts. Nature of the series: In vivo efficacy in A431 xenografts. The conditions noted are these: A431 xenografts, q4dx6, 63% of single dose MTD. As for the experimental part: as §1, with “CD-1” for “NIH-III”, “A431” for “SKOV3”, “(5×10^6” for “(1×10^7”, “[…];” for “μL;”, “6-10” for “50-65”
Series [3] addresses T2, erbB1 (Homo sapiens, UniProt P00533). Nature of the series: Inhibition of erbB1 autophosphorylation in EGF-stimulated intact A431 cells (Western blot).
For a further series, the system named is A431 cells. Nature of the series: Cellular growth inhibition (sulforhodamine B). The conditions noted are these: for IC50: Homo sapiens.
The target in series [4] is T2, erbB1. Briefly: Cellular erbB1 inhibition: irreversibility wash-out assay in A431 cells.
The next series concerns SW620 cells. Nature of the series: Cellular growth inhibition (sulforhodamine B). The class given is cell-based, Human. The conditions noted are these: Table 3; for IC50: Homo sapiens, SW-620.
The nature of series [5]: in vivo. The conditions noted are these: mouse, plasma, ip, 42 umol/kg.
A short description of series [6]: in vivo. The settings on record: female, CD-1 nude, mouse, ip.
The next series deals with SKOV3 cells. Nature of the series: Cellular growth inhibition (sulforhodamine B). Type of series: cell-based, Human. The conditions noted are these: Table 9; for IC50: Homo sapiens, SK-OV-3.
The target in series [7] is T1, erbB2. Briefly: Inhibition of basal phospho-erbB2 in SKOV3 cells (Western blot). The class given is cell-based. On the set-up: endogenous in cells; host or cells: SKOV3 human ovarian carcinoma cells. The settings on record: SKOV3 cells; read-out: cellular erbB2 IC50. From the text:
Values are plotted using SigmaPlot 10.

For the next series, the system named is H1975 xenografts. Briefly: In vivo efficacy in H1975 xenografts. The settings on record: H1975 xenografts, equitoxic dose 133 (42) and 42.2 (161) μmol/kg/dose, q3dx4, IP. On the set-up: species or system mice. As for the experimental part:
as §1, with “H1975” for “SKOV3”, “(5×10^6” for “(1×10^7”, “8-12” for “50-65”, “For growth delay experiments mice were randomized to treatment and tumor volume [π(length×width^2)/6]” for “Tumour size”, “weight” for “weights”, “daily following treatment.” for “at regular intervals. Tumour volume was calculated as π (length×width^2)/6.”

A short description of series [8]: Plasma and A431 tumour pharmacokinetics of compounds 42 and 161.
The test system of a further series is H1975 cells. Nature of the series: Cellular growth inhibition (sulforhodamine B). Type of series: cell-based, Human. The conditions noted are these: Table 9; for IC50: Homo sapiens, NCI-H1975.
The mark [9] stands for this setting: A-431, 24 h, read-out: Cellular Growth Inhibition IC50 A431 Oxic.

T2 sequence (P00533 25-1210): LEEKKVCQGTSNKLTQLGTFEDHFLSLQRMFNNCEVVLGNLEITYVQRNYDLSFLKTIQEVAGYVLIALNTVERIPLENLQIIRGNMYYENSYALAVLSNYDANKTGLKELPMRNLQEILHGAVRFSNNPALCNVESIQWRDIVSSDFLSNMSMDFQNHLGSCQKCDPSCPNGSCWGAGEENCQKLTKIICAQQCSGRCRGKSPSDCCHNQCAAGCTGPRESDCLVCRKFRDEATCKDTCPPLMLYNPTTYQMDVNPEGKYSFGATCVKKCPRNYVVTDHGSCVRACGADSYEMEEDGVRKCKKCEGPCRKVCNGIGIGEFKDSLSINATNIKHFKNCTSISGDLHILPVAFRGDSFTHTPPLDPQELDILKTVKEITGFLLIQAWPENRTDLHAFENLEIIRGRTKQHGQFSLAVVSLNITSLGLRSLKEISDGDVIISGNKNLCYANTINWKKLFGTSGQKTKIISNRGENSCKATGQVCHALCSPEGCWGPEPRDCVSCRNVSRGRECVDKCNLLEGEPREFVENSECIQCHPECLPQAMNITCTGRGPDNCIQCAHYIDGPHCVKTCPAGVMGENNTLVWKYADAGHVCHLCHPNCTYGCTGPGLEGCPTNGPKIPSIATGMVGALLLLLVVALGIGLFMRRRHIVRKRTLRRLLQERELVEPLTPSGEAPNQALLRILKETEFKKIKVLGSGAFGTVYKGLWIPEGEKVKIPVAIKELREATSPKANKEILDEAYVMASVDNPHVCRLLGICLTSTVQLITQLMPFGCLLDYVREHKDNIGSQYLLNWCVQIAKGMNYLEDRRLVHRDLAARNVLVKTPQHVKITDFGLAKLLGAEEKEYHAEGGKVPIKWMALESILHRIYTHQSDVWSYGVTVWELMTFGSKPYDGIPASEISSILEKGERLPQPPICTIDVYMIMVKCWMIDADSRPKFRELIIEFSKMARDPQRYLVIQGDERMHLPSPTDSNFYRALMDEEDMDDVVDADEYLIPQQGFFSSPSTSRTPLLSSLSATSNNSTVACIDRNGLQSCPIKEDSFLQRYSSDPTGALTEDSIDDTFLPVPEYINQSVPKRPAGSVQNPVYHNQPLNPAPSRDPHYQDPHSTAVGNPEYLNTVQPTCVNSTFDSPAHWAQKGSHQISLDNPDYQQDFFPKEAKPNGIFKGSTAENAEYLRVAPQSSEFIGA
T1 sequence (P04626 23-1255): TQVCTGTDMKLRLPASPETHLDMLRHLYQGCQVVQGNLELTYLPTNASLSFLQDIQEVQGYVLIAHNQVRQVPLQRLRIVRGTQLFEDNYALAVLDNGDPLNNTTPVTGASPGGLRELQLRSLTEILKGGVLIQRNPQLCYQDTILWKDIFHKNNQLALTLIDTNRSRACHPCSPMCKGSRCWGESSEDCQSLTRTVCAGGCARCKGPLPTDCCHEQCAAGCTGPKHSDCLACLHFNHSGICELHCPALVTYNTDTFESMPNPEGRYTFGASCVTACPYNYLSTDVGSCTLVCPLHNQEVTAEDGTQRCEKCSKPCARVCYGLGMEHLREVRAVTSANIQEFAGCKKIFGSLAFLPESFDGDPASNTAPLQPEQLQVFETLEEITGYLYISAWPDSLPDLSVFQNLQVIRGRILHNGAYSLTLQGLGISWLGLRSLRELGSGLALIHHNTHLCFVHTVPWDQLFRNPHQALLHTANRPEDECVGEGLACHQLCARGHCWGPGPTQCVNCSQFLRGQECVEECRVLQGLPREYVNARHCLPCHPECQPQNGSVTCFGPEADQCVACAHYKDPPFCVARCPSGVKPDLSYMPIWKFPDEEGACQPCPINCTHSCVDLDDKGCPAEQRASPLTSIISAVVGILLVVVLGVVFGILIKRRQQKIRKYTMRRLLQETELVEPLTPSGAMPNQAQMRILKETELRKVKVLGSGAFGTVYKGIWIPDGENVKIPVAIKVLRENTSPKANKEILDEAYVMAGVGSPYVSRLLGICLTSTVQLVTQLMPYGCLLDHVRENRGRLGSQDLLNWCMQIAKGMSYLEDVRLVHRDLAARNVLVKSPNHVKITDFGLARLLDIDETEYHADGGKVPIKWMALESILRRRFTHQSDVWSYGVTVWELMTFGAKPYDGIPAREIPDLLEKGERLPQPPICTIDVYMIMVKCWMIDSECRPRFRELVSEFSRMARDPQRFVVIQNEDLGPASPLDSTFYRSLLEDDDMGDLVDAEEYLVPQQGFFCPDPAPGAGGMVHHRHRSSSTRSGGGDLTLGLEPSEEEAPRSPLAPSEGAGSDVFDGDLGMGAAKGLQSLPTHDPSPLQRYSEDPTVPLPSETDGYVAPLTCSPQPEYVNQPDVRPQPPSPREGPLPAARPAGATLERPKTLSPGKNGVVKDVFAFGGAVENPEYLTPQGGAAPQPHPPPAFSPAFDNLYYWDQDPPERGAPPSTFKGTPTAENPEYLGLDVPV
Chain of erbB4 (Q15303 26-1308): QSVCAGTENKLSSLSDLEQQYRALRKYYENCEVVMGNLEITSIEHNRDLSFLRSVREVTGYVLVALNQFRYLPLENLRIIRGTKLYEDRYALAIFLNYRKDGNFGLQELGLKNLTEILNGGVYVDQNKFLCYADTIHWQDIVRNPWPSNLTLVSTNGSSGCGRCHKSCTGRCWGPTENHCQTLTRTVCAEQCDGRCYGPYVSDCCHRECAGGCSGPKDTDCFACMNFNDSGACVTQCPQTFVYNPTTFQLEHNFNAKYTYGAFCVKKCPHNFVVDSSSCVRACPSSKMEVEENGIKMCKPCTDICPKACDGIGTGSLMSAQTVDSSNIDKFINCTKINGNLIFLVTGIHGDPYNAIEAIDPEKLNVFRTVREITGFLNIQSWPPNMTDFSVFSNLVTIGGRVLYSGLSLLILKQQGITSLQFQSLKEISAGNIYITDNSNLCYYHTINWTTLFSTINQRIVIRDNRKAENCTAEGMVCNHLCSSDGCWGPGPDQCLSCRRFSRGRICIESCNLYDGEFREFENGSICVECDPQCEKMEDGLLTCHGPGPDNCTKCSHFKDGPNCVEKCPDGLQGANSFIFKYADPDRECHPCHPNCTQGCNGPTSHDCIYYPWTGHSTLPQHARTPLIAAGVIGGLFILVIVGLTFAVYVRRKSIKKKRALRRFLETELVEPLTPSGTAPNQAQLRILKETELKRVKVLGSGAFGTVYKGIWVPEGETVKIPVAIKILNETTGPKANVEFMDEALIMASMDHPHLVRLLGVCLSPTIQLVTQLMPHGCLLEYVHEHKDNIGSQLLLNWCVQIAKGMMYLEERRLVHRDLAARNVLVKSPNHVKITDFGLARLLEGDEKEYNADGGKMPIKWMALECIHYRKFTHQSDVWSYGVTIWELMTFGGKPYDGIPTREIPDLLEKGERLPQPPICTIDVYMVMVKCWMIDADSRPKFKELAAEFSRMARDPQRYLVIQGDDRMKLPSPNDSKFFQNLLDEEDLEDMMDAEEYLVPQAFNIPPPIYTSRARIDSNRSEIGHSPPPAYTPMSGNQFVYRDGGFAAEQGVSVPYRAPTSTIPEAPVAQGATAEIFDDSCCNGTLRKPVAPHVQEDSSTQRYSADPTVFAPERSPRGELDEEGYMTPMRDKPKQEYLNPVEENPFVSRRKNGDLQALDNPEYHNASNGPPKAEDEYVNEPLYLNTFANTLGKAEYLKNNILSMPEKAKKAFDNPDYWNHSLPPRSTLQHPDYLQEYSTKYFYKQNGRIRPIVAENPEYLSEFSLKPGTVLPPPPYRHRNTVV
Procedure for H1975 cells: (§3) Human A431, BT474, SKBR3, SKOV3, SW620, H1975 and HT29 carcinoma cells in log phase exponential growth in alpha minimal essential media (αMEM) containing 5% fetal bovine serum (FBS), were harvested by trypsinisation (1× trypsin/EDTA, Gibco Brl), counted, and seeded into 96 well plates (Nunc) at cell densities ranging from 800-1500 cells/well. Half of the cell samples were seeded into plates that were pre-equilibrated and held in an anoxic environment (90% N2, 5% H2, 5% CO2, 37° Q Anaerobic chamber, Coy Laboratory Products). […] At the end of this period the anoxic plates were recovered from the anaerobic camber and held under normoxia in a standard CO2 incubator (37° C.) for 20 hours. All plates were washed free of compound and cells were allowed to proliferate for a further 4 days in αMEM containing 5% FBS+antibiotics. Cells were fixed in trichloroacteic acid (30 min), washed and stained with sulforhodamine B (SRB, 60 min) prior to washing in acidified water. SRB was solubilised and absorption read at 450 nm to calculate cell densities. Inhibition of proliferation was calculated relative to untreated control wells.
Human A431, H1975 and SKOV3 carcinoma cells in log phase exponential growth in alpha minimal essential media (αMEM) containing 5% fetal bovine serum (FBS), were harvested by trypsinisation (1× trypsin/EDTA, Gibco Brl), counted, and seeded into 96 well plates (Nunc) at cell densities ranging from 800-1500 cells/well. Half of the cell samples were seeded into plates that were pre-equilibrated and held in an anoxic environment (90% N2, 5% H2, 5% CO2, 37° C.; Anaerobic chamber, Coy Laboratory Products). […] At the end of this period the anoxic plates were recovered from the anaerobic camber and held under normoxia in a standard CO2 incubator (37° C.) for 20 hours. All plates were washed free of compound and cells were allowed to proliferate for a further 4 days in αMEM containing 5% FBS+antibiotics. Cells were fixed in trichloroacteic acid (30 min), washed and stained with sulforhodamine B (SRB, 60 min) prior to washing in acidified water. SRB was solubilised and absorption read at 450 nm to calculate cell densities. Inhibition of proliferation was calculated relative to untreated control wells.
They were then washed free of drug and incubated for a further 4 days, before being stained for cell survival with sulforhodamine B.
Procedure for SKBR3 cells: as §3
Procedure for SW620 cells: as §3

With `CN(C)C/C=C/C(=O)Nc1ccc2ncnc(Nc3cccc(Br)c3)c2c1` [Compound 11, (2E)-N-[4-(3-bromoanilino)-6-quinazolinyl]-4-(dimethylamino)-2-butenamide, reference compound], the “inhibition of cellular Erk1/2 phosphorylation” value with Erk1/2 is “potent inhibitor”. The IC50 in the series with SKBR3 cells (24 hour exposure entirely oxic, read-out: Cellular Growth Inhibition IC50 SKBR3 Oxic) was 81 nM; in the series with SKBR3 cells (first 4 hours anoxic, read-out: Cellular Growth Inhibition IC50 SKBR3 Anoxic), 141 nM; on erbB4 it was 2.7 nM; at erbB2 [2] it was 8 nM and 7.7 nM; in the series on A431 cells (setting [9]) it was 40 nM; in the series on A431 cells (A-431, read-out: Cellular Growth Inhibition IC50 A431 Anoxic), 40 nM. Moreover, the IC50 in the series with SW620 cells (24 hour exposure entirely oxic, read-out: Cellular Growth Inhibition IC50 SW620 Oxic) came to 3430 nM; in the series with SW620 cells (first 4 hours anoxic, read-out: Cellular Growth Inhibition IC50 SW620 Anoxic), 2890 nM. The “SKBR3 HCR” value in the series on SKBR3 cells is 0.6 fold. For the same compound, the deaths in the series with SKOV3 xenografts (q3dx6, 133 (20) and 56 (11) umol/kg/dose) is on record as 1/7; in the series with A431 xenografts, 2/12. The half-life in [1] (A431 tumour, intraperitoneal) is 9 h. In series [1] (plasma, ip), the area under the curve (AUC) is 18 µM·h. The “inhibition of cellular HER1 phosphorylation” value against erbB1 [3] (EGF-stimulated A431 cells) is “potent inhibitor”. In addition, the “erbB1 autophosphorylation, cells not washed free of drug” value at erbB1 [4] is given as “completely inhibited”. In the series with SW620 cells, the “SW620 HCR” value is 1.2 fold. In the series “in vivo [5]”, this compound had an AUC(0-t) of 12 µM·h. In the series “in vivo [6]”, this compound returned an MTD of 100 µmol/kg.
`CN(C)C/C=C/C(=O)Nc1cc2c(Nc3ccc(F)c(Br)c3)ncnc2cn1` [Compound 161, (2E)-N-[4-(3-bromo-4-fluoroanilino)pyrido[3,4-d]pyrimidin-6-yl]-4-(dimethylamino)-2-butenamide]: in the series on SKOV3 xenografts (q3dx9, 100 (42) and 31.6 (161) μmol/kg/dose), the deaths is on record as 1/7. The IC50 worked out at 840 nM in the series with SKOV3 cells (24 hour exposure oxic, read-out: Cellular Growth Inhibition IC50 SKOV3 Oxic); 1310 nM in the series on SKOV3 cells (first 4 hours anoxic, read-out: Cellular Growth Inhibition IC50 SKOV3 Anoxic); 6 nM at erbB2 [7]; 5 nM against erbB1 [3]; 28 nM with A431 cells (A-431, 4 h, read-out: Cellular Growth Inhibition IC50 A431 Anoxic); 30 nM with A431 cells (setting [9]). For the same compound, the concentration for half-maximal inhibition (IC50) was found to be 1260 nM in the series on H1975 cells (24 hour exposure oxic, read-out: Cellular Growth Inhibition IC50 H1975 Oxic) and 1400 nM in the series on H1975 cells (first 4 hours anoxic, read-out: Cellular Growth Inhibition IC50 H1975 Anoxic). Also, the “SKOV3 HCR” value in the series with SKOV3 cells was 0.8 fold. Moreover, the “A431 HCR” value with A431 cells (Table 9) came to 1.6 fold. Moreover, the “erbB1 autophosphorylation, cells not washed free of drug” value at erbB1 [4] (1 μM, 1 hour exposure, then EGF stimulation) is on record as “completely inhibited”. In addition, in the series with H1975 xenografts, the “tumour growth inhibition (TGI)” value is listed as 100%. Moreover, in series [8] (female, NIH-III, mouse, plasma, ip, 31.6 umol/kg), the AUC stood at 8 µM·h. Further, in series [8] (inhibitor 161 dosed directly at 31.6 umol/kg ip, A431 tumour), the “tumour AUC0-inf” value turned out to be 49 µmol·h/kg. The “H1975 HCR” value with H1975 cells turned out to be 0.9 fold.
